Results: patent US20210038607A1, “OXADIAZOLYLTHIOPHENE DERIVATIVES USEFUL AS HISTONE DEACETYLASE INHIBITORS” (Karus Therapeutics Limited, priority 2018, published 2021)

What was measured:
[1] = molecular target: T1, Recombinant human HDAC6 (Homo sapiens, UniProt Q9UBN7); assay: HDAC6 biochemical assay, AMC-labeled peptide substrate; details: HDAC6; read-out: HDAC Isoform IC50 (nM) 6
T1 construct: full length, MW=159 kDa; GST (N); host or cells: Sf9 insect cells (baculovirus)
T1 sequence (Q9UBN7 1-1215): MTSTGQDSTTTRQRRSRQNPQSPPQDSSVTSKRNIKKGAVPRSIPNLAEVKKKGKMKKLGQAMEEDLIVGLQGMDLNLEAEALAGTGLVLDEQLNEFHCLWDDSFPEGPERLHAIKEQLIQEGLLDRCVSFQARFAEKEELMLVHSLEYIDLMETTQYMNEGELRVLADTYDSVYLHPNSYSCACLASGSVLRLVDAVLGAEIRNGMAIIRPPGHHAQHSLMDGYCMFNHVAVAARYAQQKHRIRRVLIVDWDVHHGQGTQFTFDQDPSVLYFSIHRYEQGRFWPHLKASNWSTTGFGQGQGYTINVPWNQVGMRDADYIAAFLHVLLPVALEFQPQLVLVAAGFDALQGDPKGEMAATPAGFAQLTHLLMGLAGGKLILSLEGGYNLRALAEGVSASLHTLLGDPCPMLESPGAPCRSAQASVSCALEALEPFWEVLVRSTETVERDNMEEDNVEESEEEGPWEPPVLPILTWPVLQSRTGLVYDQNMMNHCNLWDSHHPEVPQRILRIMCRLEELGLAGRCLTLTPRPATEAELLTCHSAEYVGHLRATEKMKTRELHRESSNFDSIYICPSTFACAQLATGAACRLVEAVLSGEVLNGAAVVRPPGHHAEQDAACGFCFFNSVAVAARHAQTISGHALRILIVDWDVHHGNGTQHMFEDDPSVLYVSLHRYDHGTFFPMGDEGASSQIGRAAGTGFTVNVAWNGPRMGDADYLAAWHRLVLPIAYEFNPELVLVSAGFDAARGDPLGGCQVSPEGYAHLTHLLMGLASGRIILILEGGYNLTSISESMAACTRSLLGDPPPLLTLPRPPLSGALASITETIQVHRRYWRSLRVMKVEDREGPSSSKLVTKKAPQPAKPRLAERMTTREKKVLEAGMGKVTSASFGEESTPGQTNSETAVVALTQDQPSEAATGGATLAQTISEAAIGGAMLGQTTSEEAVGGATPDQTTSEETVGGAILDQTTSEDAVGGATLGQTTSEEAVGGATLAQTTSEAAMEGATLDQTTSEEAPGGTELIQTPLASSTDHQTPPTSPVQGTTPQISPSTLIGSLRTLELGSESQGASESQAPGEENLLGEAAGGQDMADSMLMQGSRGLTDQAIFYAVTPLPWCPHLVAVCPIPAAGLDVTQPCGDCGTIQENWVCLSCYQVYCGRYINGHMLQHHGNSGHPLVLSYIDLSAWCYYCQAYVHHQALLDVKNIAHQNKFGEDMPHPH
Summary of the method: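 Two-step fluorogenic read-out: enzyme deacetylates 50 μM RHKK(Ac)AMC for 1 h at 30° C in pH 8.0 Tris buffer with BSA and 1% DMSO, then developer cleavage gives signal at Ex 360/Em 460. Enzyme: 0.3 ng/ul recombinant full-length human HDAC6, GST-tagged, Sf9-expressed.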

[2] = molecular target: T2, Human HDAC4 (Homo sapiens, UniProt P56524); assay: HDAC4 biochemical assay, class IIa-specific substrate; details: read-out: HDAC Isoform IC50 (nM) 4
T2 construct: amino acids 627-1085 with N-terminal GST tag; GST (N); host or cells: baculovirus expression system
Summary of the method: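 Two-step fluorogenic read-out: deacetylated BOC-Lys(trifluoroacetyl)-AMC (50 μM) was digested by developer and measured at Ex/Em 360/460. Deacetylation by 0.004 ng/ul HDAC4 (aa 627-1085, N-terminal GST) ran 30 min at room temperature, pH 8.0 Tris buffer, 1 mg/mL BSA, 1% DMSO.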

[3] = molecular target: T3, Human HDAC9 (Homo sapiens, UniProt Q9UKV0); assay: HDAC9 biochemical assay, class IIa-specific substrate; details: read-out: HDAC Isoform IC50 (nM) 9
T3 construct: amino acids 604-1066 with C-terminal His tag; His (C); host or cells: baculovirus expression system
Summary of the method: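 HDAC9 residues 604-1066 (C-terminal His tag, baculovirus-expressed) at 0.06 ng/ul with 50 μM class IIa substrate Boc-Lys(trifluoroacetyl)-AMC in Tris-HCl pH 8.0 buffer with BSA and 1% DMSO. 30 min at room temperature, then developer added; fluorescence read at 360/460 nm Ex/Em.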

T3 sequence (Q9UKV0 604-1066 isoform Q9UKV0-5): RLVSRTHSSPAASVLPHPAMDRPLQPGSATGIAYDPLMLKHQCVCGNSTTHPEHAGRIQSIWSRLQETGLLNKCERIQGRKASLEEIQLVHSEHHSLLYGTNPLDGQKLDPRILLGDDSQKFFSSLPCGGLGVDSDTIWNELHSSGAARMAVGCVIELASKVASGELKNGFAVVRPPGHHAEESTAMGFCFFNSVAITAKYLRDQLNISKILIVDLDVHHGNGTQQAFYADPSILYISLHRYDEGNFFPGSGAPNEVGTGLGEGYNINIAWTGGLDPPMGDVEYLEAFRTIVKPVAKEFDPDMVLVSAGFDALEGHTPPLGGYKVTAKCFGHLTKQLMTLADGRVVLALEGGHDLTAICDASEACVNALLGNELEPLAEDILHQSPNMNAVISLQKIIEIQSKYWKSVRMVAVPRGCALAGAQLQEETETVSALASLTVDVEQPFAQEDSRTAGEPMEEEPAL
T2 sequence (P56524 627-1084 limits assumed): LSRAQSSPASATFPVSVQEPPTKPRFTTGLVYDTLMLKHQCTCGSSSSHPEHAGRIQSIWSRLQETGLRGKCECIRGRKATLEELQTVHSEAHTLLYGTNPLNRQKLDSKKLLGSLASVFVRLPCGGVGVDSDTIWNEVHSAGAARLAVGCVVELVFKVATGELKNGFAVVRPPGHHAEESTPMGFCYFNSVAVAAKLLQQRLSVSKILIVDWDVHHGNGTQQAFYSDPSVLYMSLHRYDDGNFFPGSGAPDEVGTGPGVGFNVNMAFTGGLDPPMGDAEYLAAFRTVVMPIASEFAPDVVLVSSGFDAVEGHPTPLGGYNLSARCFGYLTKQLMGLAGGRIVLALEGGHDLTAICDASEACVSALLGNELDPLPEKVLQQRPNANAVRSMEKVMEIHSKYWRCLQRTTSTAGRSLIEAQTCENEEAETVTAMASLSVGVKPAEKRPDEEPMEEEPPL

Row | SMILES | IC50 [1] | IC50 [2] | IC50 [3]
1 | O=C(c1cnnc(N(Cc2ccc(-c3noc(C(F)(F)F)n3)s2)c2cnccn2)c1)N1CC[S+]([O-])CC1 [Example FU, 4-{6-[(Pyrazin-2-yl)({5-[5-(trifluoromethyl)-1,2,4-oxadiazol-3-yl]thiophen-2-yl}methyl)amino]pyridazine-4-carbonyl}-1lambda4-thiomorpholin-1-one] | ≤ 500 nM | ≤ 10000 nM | ≤ 10000 nM
2 | FC(F)c1cnnc(N(Cc2ccc(-c3noc(C(F)(F)F)n3)s2)c2cnccn2)c1 [Example GV, 5-(Difluoromethyl)-N-(pyrazin-2-yl)-N-({5-[5-(trifluoromethyl)-1,2,4-oxadiazol-3-yl]thiophen-2-yl}methyl)pyridazin-3-amine] | ≤ 500 nM | ≤ 10000 nM | ≤ 10000 nM
3 | C[C@H]1CCCN1C(=O)c1cnnc(N(Cc2ccc(-c3noc(C(F)(F)F)n3)s2)c2cnccn2)c1 [Example GY, 5-[(2S)-2-Methylpyrrolidine-1-carbonyl]-N-(pyrazin-2-yl)-N-({5-[5-(trifluoromethyl)-1,2,4-oxadiazol-3-yl]thiophen-2-yl}methyl)pyridazin-3-amine] | ≤ 500 nM | ≤ 10000 nM | ≤ 10000 nM
4 | O=C(c1cncc(N(Cc2ccc(-c3noc(C(F)(F)F)n3)s2)c2cnccn2)c1)N1CCOCC1 [Example GR, N-[5-(Morpholine-4-carbonyl)pyridin-3-yl]-N-({5-[5-(trifluoromethyl)-1,2,4-oxadiazol-3-yl]thiophen-2-yl}methyl)pyrazin-2-amine] | ≤ 10000 nM | ≤ 1000 nM | ≤ 10000 nM
5 | O=C(c1ccc(N(Cc2ccc(-c3noc(C(F)(F)F)n3)s2)c2cnccn2)nn1)N1C[C@@H]2C[C@H]1CO2 [Example FE, 6-[(1S,4S)-2-Oxa-5-azabicyclo[2.2.1]heptane-5-carbonyl]-N-(pyrazin-2-yl)-N-({5-[5-(trifluoromethyl)-1,2,4-oxadiazol-3-yl]thiophen-2-yl}methyl)pyridazin-3-amine] | ≤ 500 nM | ≤ 500 nM | ≤ 10000 nM
6 | O=C(c1cnnc(N(Cc2ccc(-c3noc(C(F)(F)F)n3)s2)c2cnccn2)c1)N1CCCC1 [Example EA, N-(Pyrazin-2-yl)-5-(pyrrolidine-1-carbonyl)-N-({5-[5-(trifluoromethyl)-1,2,4-oxadiazol-3-yl]thiophen-2-yl}methyl)pyridazin-3-amine] | ≤ 500 nM | ≤ 10000 nM | ≤ 10000 nM
7 | Nc1cnnc(N(Cc2ccc(-c3noc(C(F)(F)F)n3)s2)c2cnccn2)c1 [Example FL, N3-(Pyrazin-2-yl)-N3-({5-[5-(trifluoromethyl)-1,2,4-oxadiazol-3-yl]thiophen-2-yl}methyl)pyridazine-3,5-diamine] | ≤ 500 nM | ≤ 500 nM | ≤ 1000 nM
8 | O=C(c1ccc(N(Cc2ccc(-c3noc(C(F)(F)F)n3)s2)c2cnccn2)nn1)N1CCCCC1 [Example FG, 6-(Piperidine-1-carbonyl)-N-(pyrazin-2-yl)-N-({5-[5-(trifluoromethyl)-1,2,4-oxadiazol-3-yl]thiophen-2-yl}methyl)pyridazin-3-amine] | ≤ 500 nM | ≤ 500 nM | ≤ 1000 nM
9 | CC1(c2cnnc(N(Cc3ccc(-c4noc(C(F)(F)F)n4)s3)c3cnccn3)c2)COC1 [Example GT, 5-(3-Methyloxetan-3-yl)-N-(pyrazin-2-yl)-N-({5-[5-(trifluoromethyl)-1,2,4-oxadiazol-3-yl]thiophen-2-yl}methyl)pyridazin-3-amine] | ≤ 500 nM | ≤ 10000 nM | ≤ 10000 nM
10 | [O-][S+]1CCN(Cc2ccc(N(Cc3ccc(-c4noc(C(F)(F)F)n4)s3)c3cnccn3)nn2)CC1 [Example FO, 4-({6-[(Pyrazin-2-yl)({5-[5-(trifluoromethyl)-1,2,4-oxadiazol-3-yl]thiophen-2-yl}methyl)amino]pyridazin-3-yl}methyl)-1lambda4-thiomorpholin-1-one] | ≤ 500 nM | ≤ 1000 nM | ≤ 10000 nM
11 | O=C(O)c1cnnc(N(Cc2sc(-c3noc(C(F)(F)F)n3)cc2F)c2cnccn2)c1 [Example FA, 6-[({3-fluoro-5-[5-(trifluoromethyl)-1,2,4-oxadiazol-3-yl]thiophen-2-yl}methyl)(pyrazin-2-yl)amino]pyridazine-4-carboxylic acid] | ≤ 500 nM | ≤ 10000 nM | ≤ 10000 nM
12 | O=C(c1cnnc(N(Cc2ccc(-c3noc(C(F)(F)F)n3)s2)c2cnccn2)c1)N1C[C@@H]2C[C@H]1CO2 [Example FV, 5-[(1S,4S)-2-Oxa-5-azabicyclo[2.2.1]heptane-5-carbonyl]-N-(pyrazin-2-yl)-N-({5-[5-(trifluoromethyl)-1,2,4-oxadiazol-3-yl]thiophen-2-yl}methyl)pyridazin-3-amine] | ≤ 500 nM | ≤ 10000 nM | ≤ 10000 nM
13 | COC1(C(F)(F)F)CN(C(=O)c2cnnc(N(Cc3ccc(-c4noc(C(F)(F)F)n4)s3)c3cnccn3)c2)C1 [Example GL, 5-[3-Methoxy-3-(trifluoromethyl)azetidine-1-carbonyl]-N-(pyrazin-2-yl)-N-({5-[5-(trifluoromethyl)-1,2,4-oxadiazol-3-yl]thiophen-2-yl}methyl)pyridazin-3-amine] | ≤ 500 nM | ≤ 10000 nM | ≤ 10000 nM
14 | O=C(c1cnnc(N(Cc2ccc(-c3noc(C(F)(F)F)n3)s2)c2cnccn2)c1)N1CC(F)(F)C1 [Example FT, 5-(3,3-Difluoroazetidine-1-carbonyl)-N-(pyrazin-2-yl)-N-({5-[5-(trifluoromethyl)-1,2,4-oxadiazol-3-yl]thiophen-2-yl}methyl)pyridazin-3-amine] | ≤ 500 nM | ≤ 10000 nM | ≤ 10000 nM
15 | FC(F)(F)c1cnnc(N(Cc2ccc(-c3noc(C(F)(F)F)n3)s2)c2cnccn2)c1 [Example EF, N-(Pyrazin-2-yl)-5-(trifluoromethyl)-N-({5-[5-(trifluoromethyl)-1,2,4-oxadiazol-3-yl]thiophen-2-yl}methyl)pyridazin-3-amine] | ≤ 500 nM | ≤ 10000 nM | ≤ 10000 nM
16 | O=C(c1nccnc1N(Cc1ccc(-c2noc(C(F)(F)F)n2)s1)c1cnccn1)N1CC(O)(C(F)(F)F)C1 [Example GQ, 1-{3-[(Pyrazin-2-yl)({5-[5-(trifluoromethyl)-1,2,4-oxadiazol-3-yl]thiophen-2-yl}methyl)amino]pyrazine-2-carbonyl}-3-(trifluoromethyl)azetidin-3-ol] | ≤ 1000 nM | ≤ 10000 nM | ≤ 10000 nM
17 | O=C(c1ccc(N(Cc2ccc(-c3noc(C(F)(F)F)n3)s2)c2cnccn2)nn1)N1CC(O)(C(F)(F)F)C1 [Example FK, 1-{6-[(Pyrazin-2-yl)({5-[5-(trifluoromethyl)-1,2,4-oxadiazol-3-yl]thiophen-2-yl}methyl)amino]pyridazine-3-carbonyl}-3-(trifluoromethyl)azetidin-3-ol] | ≤ 500 nM | ≤ 500 nM | ≤ 500 nM
18 | Cc1cnc(N(Cc2ccc(-c3noc(C(F)(F)F)n3)s2)c2cnccn2)cn1 [Example BH, 5-Methyl-N-(pyrazin-2-yl)-N-({5-[5-(trifluoromethyl)-1,2,4-oxadiazol-3-yl]thiophen-2-yl}methyl)pyrazin-2-amine] | ≤ 500 nM | ≤ 1000 nM | ≤ 10000 nM
